# Patent publication US20220000403A1, “NEUROT[…] DETECTION SYSTEM AND METHOD OF DETECTING A NEUROT[…]” (Ocumove ApS, priority 2018, published 2022)
# Tests used:
# Format in all cases: in vivo, human
# subjects with ADHD = assay: Eye movement signal parameters before/after methylphenidate, ADHD subjects (Example 6.6)
# Protocol: (§1) Strain gauge sensors (SleepSense Limb Movement Sensors) from SleepSense were used as eye movement sensors. These where connected to a Digital Brain Electric Activity Mapping KT88 EEG apparatus as a recording and frequency analysis arrangement.
# (§2) The subjects were instructed to keep their eyes closed, but to refrain from falling asleep.
# (§3) The signal from the sensors where filtered by one of two different filters; a 2.5 Hz low pass filter with 24 dB reduction.
# (§4) A signal was recorded over a period of 5 minutes. 1 minute of signal is illustrated in FIG. 3.
# (§5) Eye movement signals were recorded using the methods described in example 1.
# Data from 7 subjects with ADHD examined before treatment. Hereafter methylphenidate was administered, and after a subjective assessment of an effect thereof, the measurement was repeated. The sensors were in place during the entire test.
# patient with ADHD [1] = assay: Frequency analysis (FFT) of closed-eye movement signal before/after medication, Example 5; settings: one tablet of 10 mg
# Protocol: as §1, §2, §3, §4
# Using eye movement signals recorded as explained in example 1, frequency analysis was performed to determine a frequency distribution. However, only a 10 seconds period corresponding to the first 10 seconds of the latency time of example 2 was used. A Fast Fourier Transformation (FFT) based algorithm was used, with a 100 mHz resolution.
# Using eye movement signals recorded as explained in example 1, frequency analysis was performed to determine a frequency distribution. A Fast Fourier Transformation (FFT) based algorithm was used, with a 100 mHz resolution.
# In example 5, signals were recorded on a patient with ADHD.
# On FIG. 6A is the result when the patient was in an initial, unmedicated state. […]
# subjects with ADD = assay: Eye movement signal parameters before/after methylphenidate, ADD subjects (Example 6.6)
# Protocol: as §1, §2, §3, §4, §5
# In 3 out of 4 cases, an increase in the amplitude and a decrease in the average frequency was observed.
# [2] = test system: subjects with an AHDH or ADD diagnosis; assay: Maximum FFT amplitude before/after startup of methylphenidate treatment (Example 7.3); settings: for decrease in eye activity (RC): no positive effect of the treatment
# Protocol: A number of sample signals were recorded. Each sample was recorded over a period of 360 seconds. Only the middle 240 seconds are used, as the first 60 seconds and the last 60 second of the signal is discarded to avoid introducing artifacts related to the startup and termination of the test and the subject getting used to the eye sensors etc.
# The signals were subjected to frequency analysis by FFT with 100 mHz solution.
# Maximum amplitude of the frequency distribution (i.e. max FFT amplitude) is identified.
# 20 subjects with an AHDH or ADD diagnosis were evaluated with respect to effect of startup of methylphenidate treatment. A sample was recorded for each subject in accordance with example 7.2, and a maximum FFT amplitude was outputted from the frequency analysis arrangement (maximum FFT amplitude before, MAB). Thereafter, a startup dose of methylphenidate was prescribed for each subject. After ingestion, a further sample was recorded for each subject, and a maximum FFT amplitude was outputted from the frequency analysis arrangement (maximum FFT amplitude after, MAA).
# patient with ADHD [3] = assay: Number of large eye movements before/after medication, Example 5
# Protocol: as §1, §2, §3, §4
# A large eye movement number was established as the number of times the signals exceeded 50 μV, or moved below −50 μV. This signifies the number of large eye movements.
# On FIG. 6A is the result when the patient was in an initial, unmedicated state. A second measurement was made after administering suitable ADHD-medication to the patient (one tablet of 10 mg of methylphenidate), this is shown in FIG. 6B.
# Furthermore, the number of eye movements was analyzed as in example 1, before and after medication.
smiles,measurement,setting,value
COC(=O)C(c1ccccc1)C1CCCCN1 (centres unmarked) [methylphenidate],cases with a fall in the amplitude and an increase in the average frequency,"subjects with ADHD; of 7 subjects with ADHD, after methylphenidate",6 cases
same,DATA B Av Fq,"subjects with ADHD; subject 143/144, after treatment, before 3.241667",4.858
same,DATA B FFT Amplitude,"subjects with ADHD; subject 143/144, after treatment, before 15",7
same,DATA B Av Amp,"subjects with ADHD; subject 143/144, after treatment, before −0.37474",0.001138
same,DATA B Av Fq,"subjects with ADHD; subject 167/168, after treatment, before 4.511667",4.647
same,DATA B FFT Amplitude,"subjects with ADHD; subject 167/168, after treatment, before 10",9.6
same,DATA B Av Amp,"subjects with ADHD; subject 167/168, after treatment, before −0.199017",0.04479
same,DATA B Av Amp,"subjects with ADHD; subject 177/178, after treatment, before 0.578600",0.5056
same,DATA B Av Fq,"subjects with ADHD; subject 177/178, after treatment, before 2.05333",2.23
same,DATA B FFT Amplitude,"subjects with ADHD; subject 177/178, after treatment, before 28",26
same,DATA B Av Amp,"subjects with ADHD; subject 179/180, after treatment, before 0.002030",0.04999
same,DATA B Av Fq,"subjects with ADHD; subject 179/180, after treatment, before 3.07500",3.695
same,DATA B FFT Amplitude,"subjects with ADHD; subject 179/180, after treatment, before 9.5",4.1
same,DATA B Av Amp,"subjects with ADHD; subject 187/188, after treatment, before 0.061771",0.09263
same,DATA B Av Fq,"subjects with ADHD; subject 187/188, after treatment, before 2.73667",2.553
same,DATA B FFT Amplitude,"subjects with ADHD; subject 187/188, after treatment, before 9.5",12
same,DATA B Av Amp,"subjects with ADHD; subject 189/190, after treatment, before 0.012759",0.007571
same,DATA B Av Fq,"subjects with ADHD; subject 189/190, after treatment, before 3.79500",3.947
same,DATA B FFT Amplitude,"subjects with ADHD; subject 189/190, after treatment, before 8.5",5.0
same,DATA B Av Amp,"subjects with ADHD; subject 192/193, after treatment, before 0.046206",0.000667
same,DATA B Av Fq,"subjects with ADHD; subject 192/193, after treatment, before 2.425000",4.838
same,DATA B FFT Amplitude,"subjects with ADHD; subject 192/193, after treatment, before 22",8.0
same,"maximum value of frequency components after medication, reduction to","patient with ADHD [1]; 10 s period, FIG. 6C vs 6D",~20%
same,"frequency content after medication, reduction to","patient with ADHD [1]; 5 min signal, FIG. 6A vs 6B",~50%
same,cases with an increase in the amplitude and a decrease in the average frequency,subjects with ADD; out of 4 ADD subjects treated with methylphenidate,3 cases
same,DATA B Av Amp,"subjects with ADD; subject 146/147, after treatment, before 0.031965",0.03275
same,DATA B FFT Amplitude,"subjects with ADD; subject 146/147, after treatment, before 3",6.1
same,DATA B Av Fq,"subjects with ADD; subject 146/147, after treatment, before 5.07667",4.083
same,DATA B Av Amp,"subjects with ADD; subject 152/153, after treatment, before 0.061080",0.04852
same,DATA B Av Fq,"subjects with ADD; subject 152/153, after treatment, before 3.62833",4.618
same,DATA B FFT Amplitude,"subjects with ADD; subject 152/153, after treatment, before 5.5",4.2
same,DATA B Av Amp,"subjects with ADD; subject 170/171, after treatment, before 0.030927",0.02591
same,DATA B FFT Amplitude,"subjects with ADD; subject 170/171, after treatment, before 2.5",2.6
same,DATA B Av Fq,"subjects with ADD; subject 170/171, after treatment, before 5.80555",5.523
same,DATA B Av Amp,"subjects with ADD; subject 184/185, after treatment, before 0.054841",0.05472
same,DATA B Av Fq,"subjects with ADD; subject 184/185, after treatment, before 4.42333",3.64
same,DATA B FFT Amplitude,"subjects with ADD; subject 184/185, after treatment, before 5.0",8.0
same,Eff. M.: Evaluation of effect of methylphenidate,[2]; subject 143 ADHD,Good
same,RC: relative change in FFT amplitude,[2]; subject 143 ADHD,−53
same,MAA: Maximum FFT amplitude after,"[2]; subject 143 ADHD, MAB 14.3",6.7
same,Eff. M.: Evaluation of effect of methylphenidate,[2]; subject 146,No
same,RC: relative change in FFT amplitude,[2]; subject 146,100
same,MAA: Maximum FFT amplitude after,"[2]; subject 146, MAB 2.8",5.6
same,Eff. M.: Evaluation of effect of methylphenidate,[2]; subject 148 ADHD,Good
same,RC: relative change in FFT amplitude,[2]; subject 148 ADHD,−60
same,MAA: Maximum FFT amplitude after,"[2]; subject 148 ADHD, MAB 8.7",3.5
same,Eff. M.: Evaluation of effect of methylphenidate,[2]; subject 152,Good
same,RC: relative change in FFT amplitude,[2]; subject 152,−56
same,MAA: Maximum FFT amplitude after,"[2]; subject 152, MAB 4.58",2.0
same,Eff. M.: Evaluation of effect of methylphenidate,[2]; subject 155,No
same,RC: relative change in FFT amplitude,[2]; subject 155,17
same,MAA: Maximum FFT amplitude after,"[2]; subject 155, MAB 3.6",4.2
same,decrease in eye activity (RC),[2]; subject 177,below 10%
same,Eff. M.: Evaluation of effect of methylphenidate,[2]; subject 177 ADHD,No
same,RC: relative change in FFT amplitude,[2]; subject 177 ADHD,−7
same,MAA: Maximum FFT amplitude after,"[2]; subject 177 ADHD, MAB 26.7",24.8
same,Eff. M.: Evaluation of effect of methylphenidate,[2]; subject 179 ADHD,Good
same,RC: relative change in FFT amplitude,[2]; subject 179 ADHD,−65
same,MAA: Maximum FFT amplitude after,"[2]; subject 179 ADHD, MAB 8.9",3.1
same,Eff. M.: Evaluation of effect of methylphenidate,[2]; subject 184,Good
same,RC: relative change in FFT amplitude,[2]; subject 184,65
same,MAA: Maximum FFT amplitude after,"[2]; subject 184, MAB 4.8",7.9
same,Eff. M.: Evaluation of effect of methylphenidate,[2]; subject 187 ADHD,Good
same,RC: relative change in FFT amplitude,[2]; subject 187 ADHD,19
same,MAA: Maximum FFT amplitude after,"[2]; subject 187 ADHD, MAB 9.0",10.7
same,Eff. M.: Evaluation of effect of methylphenidate,[2]; subject 189,Good
same,RC: relative change in FFT amplitude,[2]; subject 189,−39
same,MAA: Maximum FFT amplitude after,"[2]; subject 189, MAB 9.0",5.5
same,Eff. M.: Evaluation of effect of methylphenidate,[2]; subject 192 ADHD,Good
same,RC: relative change in FFT amplitude,[2]; subject 192 ADHD,−66
same,MAA: Maximum FFT amplitude after,"[2]; subject 192 ADHD, MAB 21.4",7.3
same,Eff. M.: Evaluation of effect of methylphenidate,[2]; subject 197,Good
same,RC: relative change in FFT amplitude,[2]; subject 197,−56
same,MAA: Maximum FFT amplitude after,"[2]; subject 197, MAB 14.2",6.2
same,Eff. M.: Evaluation of effect of methylphenidate,[2]; subject 202 ADHD,No
same,RC: relative change in FFT amplitude,[2]; subject 202 ADHD,33
same,MAA: Maximum FFT amplitude after,"[2]; subject 202 ADHD, MAB 34.4",45.9
same,Eff. M.: Evaluation of effect of methylphenidate,[2]; subject 204 ADHD,Good
same,RC: relative change in FFT amplitude,[2]; subject 204 ADHD,−66
same,MAA: Maximum FFT amplitude after,"[2]; subject 204 ADHD, MAB 6.2",2.1
same,Eff. M.: Evaluation of effect of methylphenidate,[2]; subject 210 ADHD,No
same,RC: relative change in FFT amplitude,[2]; subject 210 ADHD,14
same,MAA: Maximum FFT amplitude after,"[2]; subject 210 ADHD, MAB 7.6",8.7
same,Eff. M.: Evaluation of effect of methylphenidate,[2]; subject 212,No
same,RC: relative change in FFT amplitude,[2]; subject 212,27
same,MAA: Maximum FFT amplitude after,"[2]; subject 212, MAB 13.1",16.7
same,Eff. M.: Evaluation of effect of methylphenidate,[2]; subject 248 ADHD,No
same,RC: relative change in FFT amplitude,[2]; subject 248 ADHD,14
same,MAA: Maximum FFT amplitude after,"[2]; subject 248 ADHD, MAB 15.9",18.2
same,Eff. M.: Evaluation of effect of methylphenidate,[2]; subject 250,Good
same,RC: relative change in FFT amplitude,[2]; subject 250,−24
same,MAA: Maximum FFT amplitude after,"[2]; subject 250, MAB 15.8",12.0
same,Eff. M.: Evaluation of effect of methylphenidate,[2]; subject 255,Good
same,RC: relative change in FFT amplitude,[2]; subject 255,−30
same,MAA: Maximum FFT amplitude after,"[2]; subject 255, MAB 22.9",16.0
same,Eff. M.: Evaluation of effect of methylphenidate,[2]; subject 258,No
same,RC: relative change in FFT amplitude,[2]; subject 258,−2
same,MAA: Maximum FFT amplitude after,"[2]; subject 258, MAB 11.2",11.0
same,decrease in eye activity (RC),[2]; subject 258,below 10%
same,Number of eye movements after medication,"patient with ADHD [3]; 1-60 s, signal exceeding +/− 50 μV, before 54",60
same,Number of eye movements after medication,"patient with ADHD [3]; 61-120 s, before 15",0
same,Number of eye movements after medication,"patient with ADHD [3]; 121-180 s, before 23",2
same,Number of eye movements after medication,"patient with ADHD [3]; 181-240 s, before 16",1
same,Number of eye movements after medication,"patient with ADHD [3]; 241-300 s, before 14",2
